Activity calls are given as the source filed them.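 The calls were made as follows: active = maximal inhibition of the USP30 enzyme reaching 30% or more across the dose series; inactive = the rest.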
Molecular target: Ubiquitin carboxyl-terminal hydrolase 30 (Homo sapiens) (UniProt Q70CQ3)
Test: ubiquitin-specific protease 30 DUB inhibitors, concentration-effect, biochemical, validation of primary actives (AID 1645865)
Details: purified USP30, Ub-rhodamine cleavage, fluorescence, 2 h

Chain of Ubiquitin carboxyl-terminal hydrolase 30 (Homo sapiens) (Q70CQ3 whole entry, looked up): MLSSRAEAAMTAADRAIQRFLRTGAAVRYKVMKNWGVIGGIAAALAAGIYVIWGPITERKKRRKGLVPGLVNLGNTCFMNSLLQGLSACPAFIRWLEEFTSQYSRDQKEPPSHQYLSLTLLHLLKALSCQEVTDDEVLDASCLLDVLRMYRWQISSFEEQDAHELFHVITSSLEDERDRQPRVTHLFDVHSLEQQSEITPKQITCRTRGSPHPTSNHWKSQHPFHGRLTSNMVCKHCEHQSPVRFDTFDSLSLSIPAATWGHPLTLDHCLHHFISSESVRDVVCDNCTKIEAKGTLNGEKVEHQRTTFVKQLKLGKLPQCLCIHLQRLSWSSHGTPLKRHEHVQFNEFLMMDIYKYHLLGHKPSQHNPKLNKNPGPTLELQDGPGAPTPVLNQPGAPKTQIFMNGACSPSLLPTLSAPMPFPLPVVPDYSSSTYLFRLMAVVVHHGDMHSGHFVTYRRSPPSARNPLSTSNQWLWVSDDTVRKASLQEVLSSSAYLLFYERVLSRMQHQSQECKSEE

Question: With `CC(=O)N1Cc2ccccc2CC2(CCCN(CC3CCOCC3)C2)C1` (stereo not drawn) as the compound, how does the IC50 read?
Answer: > 50 µM (inactive)

Question: With `COC(=O)[C@]1(O)O[C@@]2(C(=O)OC)c3c(oc4cc(C)cc(O)c4c3=O)[C@H]3c4c(oc5cc(C)cc(O)c5c4=O)C[C@H]1[C@H]32` as the compound, how does the IC50 read?
Answer: > 50 µM (inactive)

Question: How did the IC50 turn out when `COC(=O)CC1CC23OC2(C(=O)c2c(O)cccc2C3=O)C(C)O1` (stereo not drawn) was run?
Answer: > 50 µM (inactive)

Question: `Cn1c(=O)[nH]c(=O)c2c1nc1n(CCc3ccccc3)c(-c3ccccc3)cn21` was tested. Which IC50 did it give?
Answer: 37.5 µM

Question: `CCc1cc2c(=O)[nH]c(Cc3ccc(OC)cc3)nc2s1` was tested. Which IC50 did it give?
Answer: 40.3 µM

Question: With `c1ccc2c(Cc3nc(-c4ccncc4)no3)cccc2c1` as the compound, how does the IC50 read?
Answer: > 50 µM (inactive)

Question: `COCCNC(=O)c1cc(-c2cn(-c3ccccn3)c(C)n2)n2ccccc12` was tested. Which IC50 did it give?
Answer: > 50 µM (inactive)

Question: With `O=C(CCCn1c(=O)[nH]c2cc(Cl)ccc2c1=O)N1CCc2ccccc2C1` as the compound, how does the IC50 read?
Answer: 35.4 µM

Question: For `O=C(Nc1ccc2c(c1)OCCO2)Nc1nnc(CC(=O)N2CCCCC2)s1`, which IC50 is on record?
Answer: > 50 µM (inactive)

Question: `COC(=O)COc1ccc(/C=N/NC(=O)c2ccc(CN3CCc4ccccc4C3)cc2)cc1` was tested. Which IC50 did it give?
Answer: 26.7 µM

Question: Which IC50 does the source give for `COc1ccc(-c2nonc2NC(=O)C(c2ccccc2)c2ccccc2)cc1OC` here?
Answer: > 50 µM (inactive)

Question: How did the IC50 turn out when `O=C(Nc1cc(F)c2nc(N3CCCC3)ccc2c1)c1ccco1` was run?
Answer: > 50 µM (inactive)

Question: For `CCC[C@H]1O[C@@H]2CC(=O)O[C@@H]2C2=C1C(=O)c1c(O)cccc1C2=O`, which IC50 is on record?
Answer: > 50 µM (inactive)

Question: How did the IC50 turn out when `Cc1ccccc1C(=O)OCCN1C(=O)c2cccc3c(N4CCCCC4)ccc(c23)C1=O` was run?
Answer: > 50 µM (inactive)

Question: For `CN(C)CCc1cc2c(c3c1ccc1ccccc13)OCO2`, which IC50 is on record?
Answer: > 5 µM (inactive)

Question: How did the IC50 turn out when `Cc1cc(C)cc(-n2ccnc(SCC(=O)Nc3cccc(Cl)c3)c2=O)c1` was run?
Answer: 7.47 µM

Question: With `COc1c2n(c3ccccc13)[C@@]1(O)C(=O)N(C)C(=O)[C@@]1(O)c1c-2n(C)c2ccc(Cl)cc12` as the compound, how does the IC50 read?
Answer: > 50 µM (inactive)

Question: `O=c1c(S(=O)(=O)c2cc(F)cc(F)c2)c[nH]c2cc(Cl)ccc12` was tested. Which IC50 did it give?
Answer: 21 µM

Question: With `CCC(C)c1ccc(-c2csc(Cn3c(CN4CCN(C)CC4)nc4ccccc4c3=O)n2)cc1` (stereo not drawn) as the compound, how does the IC50 read?
Answer: 1.63 µM

Question: How did the IC50 turn out when `CCC(C)(C)C1CCC2(CC1)N=C(N)Nc1nc3ccccc3n12` (stereo not drawn) was run?
Answer: 28.6 µM

Question: Which IC50 does the source give for `COc1cnc(-c2ccccn2)nc1Sc1ccc(C)cc1` here?
Answer: 25.7 µM

Question: How did the IC50 turn out when `O=C(Cn1cnc2c(cnn2-c2ccc(Cl)cc2)c1=O)NCc1ccccc1Cl` was run?
Answer: 2.33 µM

Question: For `O=C(Nc1nc2c(ccc3ccccc32)s1)c1cccc(Br)c1`, which IC50 is on record?
Answer: 2.44 µM

Question: Which IC50 does the source give for `CC(C)Cc1nc2sc3c(NCc4ccccc4)ncnc3c2c2c1COC(C)(C)C2` here?
Answer: 4.71 µM

Question: Which IC50 does the source give for `Cc1ccc(Nc2nc(Nc3cccc(Cl)c3)nc3nccnc23)cc1` here?
Answer: > 50 µM (inactive)

Question: How did the IC50 turn out when `O=C(NCCCc1nc2ccccc2n1Cc1c(Cl)cccc1Cl)c1ccco1` was run?
Answer: 25 µM

Question: Which IC50 does the source give for `O=C(COc1ccc(S(=O)(=O)N2CCOCC2)cc1)N1CCC(Cc2ccccc2)CC1` here?
Answer: 49.5 µM

Question: For `CCCc1nc2sc3c(NC4CCCCC4)ncnc3c2c2c1CCC2`, which IC50 is on record?
Answer: > 50 µM (inactive)

Question: `C[C@@]12c3ccc4c(c3C(=O)c3occ(c31)C(O)C[C@H]2O)CCC4=O` (stereo partly drawn) was tested. Which IC50 did it give?
Answer: > 50 µM (inactive)

Question: Which IC50 does the source give for `O=c1c2cnc(N3CCOCC3)nc2ccn1CCc1ccccc1` here?
Answer: 16.7 µM

Question: How did the IC50 turn out when `Cc1cc(Cl)ccc1NC(=O)c1cc(-c2cccnc2)n[nH]1` was run?
Answer: > 50 µM (inactive)

Question: How did the IC50 turn out when `COC1=CC(=O)c2c(O)c3c(c(C)c2C1=O)C[C@@]1(O)[C@H](O[C@H]2CC[C@H](O[C@H]4C[C@@](C)(O)[C@H](OC(=O)c5c(C)ccc(C)c5O)[C@H](C)O4)[C@@H](C)O2)C(=O)C(C(C)=O)=C(O)[C@@]1(O)C3=O` was run?
Answer: 4.74 µM

Question: How did the IC50 turn out when `CC1OC(CC(=O)O)CC23OC12C(=O)c1c(O)cccc1C3=O` (stereo not drawn) was run?
Answer: > 50 µM (inactive)

Question: Which IC50 does the source give for `CC(C)Cc1nc2sc3c(NCCN4CCOCC4)ncnc3c2c2c1CCC2` here?
Answer: > 50 µM (inactive)

Question: `COc1ccc(-c2cc(-c3nnc(CSc4nc5ccccc5n4C)o3)c3ccccc3n2)cc1OC` was tested. Which IC50 did it give?
Answer: > 50 µM (inactive)

Question: Which IC50 does the source give for `O=C1Nc2c(Cl)cc(Cl)cc2C1(O)c1sc(NC2CCCCC2)nc1-c1ccccc1` (stereo not drawn) here?
Answer: 31.2 µM

Question: How did the IC50 turn out when `COc1ccc(CNC(=O)CN2C(=O)CC(c3ccccc3)=Nc3ccccc32)cc1` was run?
Answer: 14.6 µM

Question: With `COc1ccccc1-c1nc2c3c(ncn2n1)Oc1c(c(C)nn1-c1ccccc1)C3c1cccnc1` (stereo not drawn) as the compound, how does the IC50 read?
Answer: 2.85 µM

Question: How did the IC50 turn out when `Cc1nc(NCc2ccccn2)c2cc(-c3ccccc3)sc2n1` was run?
Answer: 25.6 µM

Question: For `CC(C)c1nc2sc3c(N(CCO)CCO)ncnc3c2c2c1COC(C)(C)C2`, which IC50 is on record?
Answer: > 50 µM (inactive)

Question: `Fc1ccccc1Cc1nc(-c2ccc3nncn3c2)no1` was tested. Which IC50 did it give?
Answer: > 50 µM (inactive)

Question: Which IC50 does the source give for `Oc1ccc(-c2nc3ccc(Cl)cn3c2NC2CCCCC2)cc1` here?
Answer: 14.1 µM

Question: For `Cc1nn(Cc2ccccc2)c(Cl)c1C(=O)NC1CCCc2ccccc21` (stereo not drawn), which IC50 is on record?
Answer: > 50 µM (inactive)

Question: Which IC50 does the source give for `O=C(NCc1cccnc1)c1cnn2c(C(F)(F)F)cc(-c3ccc(F)cc3)nc12` here?
Answer: 23.3 µM

Question: Which IC50 does the source give for `Cc1ccc(NC(=O)/C=C/c2cccc(C(F)(F)F)c2)c(O)c1` here?
Answer: 5.24 µM

Question: Which IC50 does the source give for `Cc1ccc(CNC(=O)CCCn2c(=O)c3sccc3n(CC(=O)OCc3ccccc3)c2=O)cc1` here?
Answer: 2 µM

Question: Which IC50 does the source give for `CN1CC2CN(C(=O)c3ccc(F)cc3)CCN2Cc2ccccc21` (stereo not drawn) here?
Answer: > 50 µM (inactive)

Question: `O=C(Nc1ccc2sccc2c1)c1ccc(F)cc1` was tested. Which IC50 did it give?
Answer: 35.4 µM

Source: PubChem BioAssay AID1645865 (Buhrlage Lab, Dana-Farber Cancer Institute and Novartis …, 2021)
